Measurements published in article PMC6930524, “A Prospective Repurposing of Dantrolene as a Multitarget Agent for Alzheimer’s Disease” (Molecules, 2019).

What was measured:
MAO B, human enzyme = molecular target: MAO B, human enzyme; parameters: method as in PMID 22282722; conditions: competitive inhibition; cited from earlier work
[1] = ABTS radical scavenging assay; assay type: physicochemical; conditions: compound at 0.2·[ABTS+]
From the text: (§1) Starting from these evidences, we tested DAN in two in vitro models of radical scavenging activity, i.e., the 1,1-diphenyl-2-picryl-hydrazyl (DPPH) and 2,2′-azinobis-(3-ethylbenzothiazoline-6-sulfonic acid) (ABTS) free radical production. Both generate stable nitrogen radicals showing high absorption in visible spectrum, thus allowing easy and straightforward spectrophotometric measures. […] It can be assumed that the antioxidant activity of DAN is independent from its radical scavenging properties.
(§2) Already published protocols for DPPH and […] radical scavenging were used. The scavenging of the radical DPPH^·, or the monocation radical ABTS^·+, were determined by measuring the loss of absorbance at 515 or 755 nm, respectively. Samples were prepared in clear polystyrene flat-bottomed 96-well microplates. […] A preliminary absorbance reading at 755 nm allowed to determine the actual ABTS^·+ concentration (normally 60–70 μM; extinction coefficient ε = 12,000) and set the final concentration of inhibitors to 0.2[ABTS^·+]. 215 μL of ABTS^·+ solution were mixed with 35 μL of stock solution of inhibitors and the decrease in absorbance was monitored. Antioxidant activity was determined from Equation (2) as the percentage of radical production of inhibitor containing samples, compared with control: % radical production = 100 × ABSsample/ABScontrol(2)

[2] = DPPH radical scavenging assay; assay type: physicochemical; conditions: compound 50 μM, DPPH 100 μM
From the text: as §1, §2

Q: With `CCc1ccc(CCOc2ccc(CC3SC(=O)NC3=O)cc2)nc1` (stereo not shown) [pioglitazone] as the compound, how does the “Ki for human MAO B (competitive)” value (MAO B, human enzyme) read?
A: submicromolar

Q: Which “ABTS radical scavenging activity” value [1] does the source give for `O=c1c(O)c(-c2ccc(O)c(O)c2)oc2cc(O)cc(O)c12` [quercetin] here?
A: strong radical scavenger

Q: And the “DPPH radical scavenging activity” value [2]?
A: strong radical scavenger

Q: For `CN(CCOc1ccc(CC2SC(=O)NC2=O)cc1)c1ccccn1` (stereo not shown) [rosiglitazone], which “Ki for human MAO B (competitive)” value (MAO B, human enzyme) is on record?
A: low-
